What was measured:
MDA-MB-231 = assay: Antiproliferative activity against human MDA-MB-231 cells assessed as inhibition of cell growth incubated for 48 hrs by MTT assay; format: functional, cell-based; conditions: MDA-MB-231, 48 h
A549 [1] = assay: Antiproliferative activity against human A549 cells assessed as inhibition of cell growth incubated for 48 hrs by MTT assay; format: functional, cell-based; conditions: A549, 48 h
HCT-116 = assay: Antiproliferative activity against human HCT-116 cells assessed as inhibition of cell growth incubated for 48 hrs by MTT assay; format: functional, cell-based; conditions: HCT-116, 48 h
U2OS = assay: Antiproliferative activity against human U2OS cells assessed as inhibition of cell growth incubated for 48 hrs by MTT assay; format: functional, cell-based
A549 [2] = assay: Antiproliferative activity against human A549 cells expressing Cdc37 protein assessed as inhibition of cell growth incubated for 48 hrs by MTT assay; format: functional, cell-based; conditions: A549, 48 h
A549 [3] = assay: Antitumor activity against human A549 cells xenografted in BALB/c mouse lung tumor model assessed as tumor weight at 1 mg/kg, ip measured every day for 21 days by caliper method; format: functional; conditions: time 21 day
A549 [4] = assay: Antiproliferative activity against human A549 cells expressing Hsp90-Cdc37 protein assessed as inhibition of cell growth incubated for 48 hrs by MTT assay; format: functional, cell-based; conditions: A549, 48 h
A549 [5] = assay: Antitumor activity against human A549 cells xenografted in BALB/c mouse lung tumor model assessed as tumor inhibition rate at 1 mg/kg, ip measured every day for 21 days by caliper method relative to control; format: functional; conditions: A549, 504 h, time 21 day
A549 [6] = assay: Antiproliferative activity against human A549 cells expressing Hsp90 protein assessed as inhibition of cell growth incubated for 48 hrs by MTT assay; format: functional, cell-based; conditions: A549, 48 h

IC50 (MDA-MB-231) [nM] | IC50 (A549 [1]) [nM] | IC50 (HCT-116) [nM] | IC50 (U2OS) [nM] | SMILES | IC50 (A549 [2]) [nM] | Activity (A549 [3]) [g] | IC50 (A549 [4]) [nM] | inhibition in vivo at 1 mg/kg (A549 [5]) [%] | IC50 (A549 [6]) [nM]
1670 | 1660 | 1530 | 1580 | CC1=C(O)C(=O)C=C2C1=CC=C1[C@@]2(C)CC[C@@]2(C)[C@@H]3C[C@](C)(C(=O)OCCCCn4cnc(C#N)c4C#N)CC[C@]3(C)CC[C@]12C |  |  |  |  | 
1650 | 740 | 690 | 1350 | COC(=O)c1cn(CCCOC(=O)[C@]2(C)CC[C@]3(C)CC[C@]4(C)C5=CC=C6C(=CC(=O)C(O)=C6C)[C@]5(C)CC[C@@]4(C)[C@@H]3C2)cn1 |  |  |  |  | 
1570 | 1450 | 790 | 1470 | CC1=C(O)C(=O)C=C2C1=CC=C1[C@@]2(C)CC[C@@]2(C)[C@@H]3C[C@](C)(C(=O)OCCCCCn4cnc(C#N)c4C#N)CC[C@]3(C)CC[C@]12C |  |  |  |  | 
900 | 750 | 1050 | 800 | CC1=C(O)C(=O)C=C2C1=CC=C1[C@@]2(C)CC[C@@]2(C)[C@@H]3C[C@](C)(C(=O)OCCCn4ccnc4[N+](=O)[O-])CC[C@]3(C)CC[C@]12C |  |  |  |  | 
1150 | 800 | 660 | 600 | CC1=C(O)C(=O)C=C2C1=CC=C1[C@@]2(C)CC[C@@]2(C)[C@@H]3C[C@](C)(C(=O)OCCCn4cc([N+](=O)[O-])nc4Br)CC[C@]3(C)CC[C@]12C |  |  |  |  | 
980 | 810 | 1100 | 670 | CC1=C(O)C(=O)C=C2C1=CC=C1[C@@]2(C)CC[C@@]2(C)[C@@H]3C[C@](C)(C(=O)OCCCCCn4cc([N+](=O)[O-])nc4Br)CC[C@]3(C)CC[C@]12C |  |  |  |  | 
990 | 900 | 1120 | 910 | CC1=C(O)C(=O)C=C2C1=CC=C1[C@@]2(C)CC[C@@]2(C)[C@@H]3C[C@](C)(C(=O)OCCCCCCn4cc([N+](=O)[O-])nc4Cl)CC[C@]3(C)CC[C@]12C |  |  |  |  | 
980 | 710 | 600 | 680 | CC1=C(O)C(=O)C=C2C1=CC=C1[C@@]2(C)CC[C@@]2(C)[C@@H]3C[C@](C)(C(=O)OCCCCCn4ccnc4[N+](=O)[O-])CC[C@]3(C)CC[C@]12C |  |  |  |  | 
1020 | 790 | 720 | 620 | CC1=C(O)C(=O)C=C2C1=CC=C1[C@@]2(C)CC[C@@]2(C)[C@@H]3C[C@](C)(C(=O)OCCCCn4cc([N+](=O)[O-])nc4Cl)CC[C@]3(C)CC[C@]12C |  |  |  |  | 
1030 | 710 | 640 | 710 | CC1=C(O)C(=O)C=C2C1=CC=C1[C@@]2(C)CC[C@@]2(C)[C@@H]3C[C@](C)(C(=O)OC/C=C/Cn4cnc([N+](=O)[O-])c4)CC[C@]3(C)CC[C@]12C |  |  |  |  | 
950 | 790 | 630 | 880 | CC1=C(O)C(=O)C=C2C1=CC=C1[C@@]2(C)CC[C@@]2(C)[C@@H]3C[C@](C)(C(=O)OCCCCCCn4cnc([N+](=O)[O-])c4)CC[C@]3(C)CC[C@]12C |  |  |  |  | 
1660 | 1080 | 1160 | 1730 | CC1=C(O)C(=O)C=C2C1=CC=C1[C@@]2(C)CC[C@@]2(C)[C@@H]3C[C@](C)(C(=O)OCCCCCCn4cnc(C#N)c4C#N)CC[C@]3(C)CC[C@]12C |  |  |  |  | 
1870 | 1040 | 950 | 1520 | COC(=O)c1cn(CCCCOC(=O)[C@]2(C)CC[C@]3(C)CC[C@]4(C)C5=CC=C6C(=CC(=O)C(O)=C6C)[C@]5(C)CC[C@@]4(C)[C@@H]3C2)cn1 |  |  |  |  | 
930 | 750 | 780 | 600 | CC1=C(O)C(=O)C=C2C1=CC=C1[C@@]2(C)CC[C@@]2(C)[C@@H]3C[C@](C)(C(=O)OCCCCCn4cc([N+](=O)[O-])nc4Cl)CC[C@]3(C)CC[C@]12C |  |  |  |  | 
1450 | 790 | 720 | 1450 | CC1=C(O)C(=O)C=C2C1=CC=C1[C@@]2(C)CC[C@@]2(C)[C@@H]3C[C@](C)(C(=O)OCCCn4cnc(C#N)c4C#N)CC[C@]3(C)CC[C@]12C |  |  |  |  | 
560 | 630 | 840 | 740 | COC(=O)[C@]12CCC(C)(C)C[C@H]1[C@H]1C(=O)C=C3[C@@]4(C)C=C(C#N)C(=O)C(C)(C)[C@@H]4CC[C@@]3(C)[C@]1(C)CC2 [BARDOXOLONE METHYL] |  |  |  |  | 
1550 | 1970 | 1290 | 1450 | CC1=C(O)C(=O)C=C2C1=CC=C1[C@@]2(C)CC[C@@]2(C)[C@@H]3C[C@](C)(C(=O)OCCCn4cnc(C)c4)CC[C@]3(C)CC[C@]12C |  |  |  |  | 
1550 | 780 | 670 | 880 | COC(=O)c1cn(CCCCCOC(=O)[C@]2(C)CC[C@]3(C)CC[C@]4(C)C5=CC=C6C(=CC(=O)C(O)=C6C)[C@]5(C)CC[C@@]4(C)[C@@H]3C2)cn1 |  |  |  |  | 
980 | 810 | 700 | 610 | CC1=C(O)C(=O)C=C2C1=CC=C1[C@@]2(C)CC[C@@]2(C)[C@@H]3C[C@](C)(C(=O)OC/C=C/Cn4cc([N+](=O)[O-])nc4Cl)CC[C@]3(C)CC[C@]12C |  |  |  |  | 
1210 | 730 | 640 | 830 | CC1=C(O)C(=O)C=C2C1=CC=C1[C@@]2(C)CC[C@@]2(C)[C@@H]3C[C@](C)(C(=O)OCCCCCCn4ccnc4[N+](=O)[O-])CC[C@]3(C)CC[C@]12C |  |  |  |  | 
1920 | 1090 | 1340 | 1480 | COC(=O)c1cn(CCCCCCOC(=O)[C@]2(C)CC[C@]3(C)CC[C@]4(C)C5=CC=C6C(=CC(=O)C(O)=C6C)[C@]5(C)CC[C@@]4(C)[C@@H]3C2)cn1 |  |  |  |  | 
690 | 670 | 630 | 700 | CC1=C(O)C(=O)C=C2C1=CC=C1[C@@]2(C)CC[C@@]2(C)[C@@H]3C[C@](C)(C(=O)OCCCn4cnc([N+](=O)[O-])c4)CC[C@]3(C)CC[C@]12C |  |  |  |  | 
1020 | 1060 | 1550 | 910 | CC1=C(O)C(=O)C=C2C1=CC=C1[C@@]2(C)CC[C@@]2(C)[C@@H]3C[C@](C)(C(=O)OCCCCn4ccnc4[N+](=O)[O-])CC[C@]3(C)CC[C@]12C |  |  |  |  | 
600 | 710 | 610 | 600 | CC1=C(O)C(=O)C=C2C1=CC=C1[C@@]2(C)CC[C@@]2(C)[C@@H]3C[C@](C)(C(=O)OCCCCCn4cnc([N+](=O)[O-])c4)CC[C@]3(C)CC[C@]12C |  |  |  |  | 
890 | 770 | 700 | 890 | CC1=C(O)C(=O)C=C2C1=CC=C1[C@@]2(C)CC[C@@]2(C)[C@@H]3C[C@](C)(C(=O)OCCCCn4cnc([N+](=O)[O-])c4)CC[C@]3(C)CC[C@]12C |  |  |  |  | 
1550 | 1570 | 1090 | 1650 | CC1=C(O)C(=O)C=C2C1=CC=C1[C@@]2(C)CC[C@@]2(C)[C@@H]3C[C@](C)(C(=O)OCCCn4ccnc4)CC[C@]3(C)CC[C@]12C |  |  |  |  | 
1220 | 930 | 1850 | 680 | CC1=C(O)C(=O)C=C2C1=CC=C1[C@@]2(C)CC[C@@]2(C)[C@@H]3C[C@](C)(C(=O)OCCCCn4cc([N+](=O)[O-])nc4Br)CC[C@]3(C)CC[C@]12C |  |  |  |  | 
1050 | 1320 | 1930 | 1460 | CC1=C(O)C(=O)C=C2C1=CC=C1[C@@]2(C)CC[C@@]2(C)[C@@H]3C[C@](C)(C(=O)OCCCCCCn4cc([N+](=O)[O-])nc4Br)CC[C@]3(C)CC[C@]12C |  |  |  |  | 

SMILES | IC50 (MDA-MB-231) [nM] | IC50 (A549 [1]) [nM] | IC50 (HCT-116) [nM] | IC50 (U2OS) [nM] | IC50 (A549 [2]) [nM] | Activity (A549 [3]) [g] | IC50 (A549 [4]) [nM] | inhibition in vivo at 1 mg/kg (A549 [5]) [%] | IC50 (A549 [6]) [nM]
CC1=C(O)C(=O)C=C2C1=CC=C1[C@@]2(C)CC[C@@]2(C)[C@@H]3C[C@](C)(C(=O)O)CC[C@]3(C)CC[C@]12C [CELASTROL] | 1980 | 1680 | 1810 | 1860 | > 100000 | 0.67 | > 100000 | 52.7 | > 100000
